# Measured values: patent EP2841543B1, “IMPROVEMENTS RELATING TO FABRIC FRESHNESS” (Unilever PLC, priority 2012, dated 2013)
# Assay: Production and decomposition of squalene hydroperoxides with Rose Bengal and metal ion catalyst, monitored by HPLC
# Description: Aldrich), 10 ml of acetone and 200 µl of Rose Bengal solution (2 mg/ml). Rose Bengal (4,5,6,7-tetrachloro-2',4',5',7'-tetraiodofluorescein) is a singlet-oxygen photobleach. Air was bubbled through the solution over the whole of the 3 hour monitoring period without the metal ion catalyst, under irradiation by a xenon lamp to simulate day-light. […] The reaction monitored by HPLC using via UV. detection at 230 nm and 260 nm and actonitrile was the mobile phase. The first HPLC measurement taken was at t=0 (before addition of Rose Bengal). Typically the squalene peak was eluted at 15 minutes, and the hydroperoxides eluted at times between 2-10 minutes. For the purpose of the experiment the hydroperoxide peaks at 3 and 5.7 minutes after starting the column were monitored for any change in relative peak height.
# [1] = time 1.5 h, RB None, IronMeN4py Yes (5 mg catalyst added after 90 minutes)
# [2] = time 1.0 h, RB Yes, IronMeN4py None, squalene in acetone, air, xenon lamp, 10 °C
# [3] = time 3.0 h, RB Yes, IronMeN4py None, squalene in acetone, air, xenon lamp, 10 °C
SMILES,Relative Peak Height at t=3 minutes [1],Relative Peak Height at t=5.7 minutes [1],Relative Peak Height at t=3 minutes [2],Relative Peak Height at t=5.7 minutes [2],Relative Peak Height at t=3 minutes [3],Relative Peak Height at t=5.7 minutes [3]
"CC(c1ccccn1)(c1ccccn1)N(Cc1ccccn1)Cc1ccccn1.[Cl-].[Cl-].[Fe+2] [IronMeN4py, iron(II) N,N-bis(pyridine-2-yl-methyl)-1,1-bis(pyridine-2-yl)-1-aminoethane dichloride]",0,300,,,,
"O=C1OC2(c3cc(I)c(O)c(I)c3Oc3c2cc(I)c(O)c3I)c2c(Cl)c(Cl)c(Cl)c(Cl)c21 [RB, 4,5,6,7-tetrachloro-2',4',5',7'-tetraiodofluorescein]",,,600,2100,2000,2100
